The text below walks through data of paper PMC10619691, “Effect of cyclic substituents on the anti-cancer activity and DNA interaction of ruthenium(II) bis-phenanthroline dipyridoquinoline” (Frontiers in Molecular Biosciences, 2023).

Data set [1] in a line: partition coefficient (log P), shake-flask method. The note with it: phosphate buffered saline (pH 7.4) / 1-octanol. Format: physicochemical. From the text: The role of lipophilicity in the activity of ruthenium (II) polypyridyl complexes is one that has been extensively reported ([Notaro and Gasser, 2017]). […] Based on this, we carried out a partition coefficient (log P) test using a shake-flask method to determine whether the marginal structural differences between VNK-754, VNK-572, and POW-12A affect their lipophilicity and to examine whether such a difference in lipophilicity confers any advantage to their anti-cancer activity. The log P results, as presented in Table 2, clearly show VNK-572 (0.014) and POW-12A (0.077) to be more lipophilic than VNK-754 (−0.874). […] Thus, along with varied DNA intercalating properties, this explains, in part, why there are appreciable differences in the cytotoxic effects of VNK572 and POW12A compared to VNK-754, even though they are generally similar in structure. For example, VNK-572 with an additional benzene ring can penetrate the bi-lipid-layered cell membrane better and achieve higher cellular and nuclear concentrations than VNK-754, producing a greater anti-tumor effect.
To study the lipophilicity of our complexes, we used the shake-flask method at 25.0 °C ± 0.1°C in line with the previously reported protocol ([Dubey et al., 2017]). Equal volumes of the aqueous phase (phosphate buffered saline, pH 7.4) and the 1-octanol phase were pre-saturated with each other overnight. A known amount of the complexes (respectively) was added to the aqueous phase, ensuring our final concentration was within the range of UV spectroscopic analysis; then, an equal volume of the pre-saturated […] phase was added. Both phases were then mixed in a conical flask and left shaking on a thermostatic shaker at a speed of 100 rpm overnight at room temperature. […] Considering that lipophilic compounds will partition into the octanol phase, the concentration of the complexes left in the aqueous phase was analyzed, respectively, by UV spectroscopy; then, the Log P value was calculated: Logp = Log10 ([solute] un-ionized octanol/[solute] un-ionized water).

Data set [2] deals with HeLa cells. The experiment in a line: Annexin V apoptosis assay. Format: cell-based, human. On the procedure: To further analyze the cytotoxicity mechanisms, annexin V was used to determine whether VNK-572/cisplatin exerts an anti-cancer activity through apoptosis. The Annexin V assay was performed following the established procedure. The steps included treating the cells with the complex for 24, 48, and 72 h in 6-well plates and incubating at 37°C. The cells were then rinsed with PBS, trypsinized, and neutralized using culture media. The cells were then spun in the centrifuge at 2500 RPM for 3 min, and the supernatant was discarded. The cell pellet was then washed first with PBS and then with ×1 binding buffer. The cells were then suspended in approximately 1 mL of binding buffer (1–5 million cells), and approximately 100 ul of this suspension was stained with 5 μL of annexin V-APC dye for 15 min. The cells were then washed with binding buffer and resuspended in 200 μL of binding buffer before being stained with 5 ul of propidium iodide. The cells were then analyzed using a flow cytometer within 4 h.

The test system of another data set is DU145 cells. The experiment in a line: cell cycle analysis. Format: cell-based, human. As for the experimental part: (§1) The cell cycle of cervical HeLa and prostate DU145 cancer cells was studied after treatment with VNK-572 and cisplatin, respectively (Figure 3). VNK-572 and cisplatin both reduced the G2 population after 72 h compared to control (e.g., 16%–11% in Hela (p = 0.06) and from 17% to 2% in the DU145 cell line (p = 0.003) for VNK-572) (Figure 3A). […] The DU145 cells saw a decrease in both phases following 72 h of treatment—from 68% to 40% and from 11% to 5% for the G1 and S phases, respectively (Figure 3A).

In data set [3] the test system is HeLa cells. The experiment in a line: cell cycle analysis. Format: cell-based, human. As for the experimental part: as §1

Some results are limits rather than exact numbers.

One may read the LogP as a log measure of how a compound divides between an organic and an aqueous phase. High values mean a more lipophilic compound, low ones a more hydrophilic compound. Consider `F[P-](F)(F)(F)(F)F.F[P-](F)(F)(F)(F)F.[Ru+2].c1cnc2c(c1)c1ncc3c(c1c1cccnc12)CCC3.c1cnc2c(c1)ccc1cccnc12.c1cnc2c(c1)ccc1cccnc12` [POW-12A], for which, in data set [1], the lipophilicity (LogP) is given as 0.077.
Turning to `F[P-](F)(F)(F)(F)F.F[P-](F)(F)(F)(F)F.[Ru+2].c1cnc2c(c1)c1ncc3c(c1c1cccnc12)CCCC3.c1cnc2c(c1)ccc1cccnc12.c1cnc2c(c1)ccc1cccnc12` [VNK-572], in the data set with HeLa cells [2] (72 h of treatment, control 2%), the “Q2 (propidium iodide and annexin V APC-stained cells), late-stage apoptosis” value is 11%. The “Q4 (annexin V APC), early apoptosis” value with HeLa cells [2] (72 h of treatment, control 14% (VNK-572), 13% (cisplatin)) amounted to 26%. Further, in the data set on HeLa cells [2] (after 72 h of treatment), the “Q1 (necrosis)” value was less than 6%. In data set [1], the LogP was 0.014. Further, the S phase population with DU145 cells (DU145, 72 h of treatment, control 11%) stood at 5%. The G1 phase population in the data set with DU145 cells (DU145, 72 h of treatment, control 68%) is 40%. The sub-G1 population worked out at 51% with DU145 cells (DU145, after 72 h, control 1%) and 12% in the data set with HeLa cells [3] (72 h of treatment, control 5% (VNK-572), 6% (cisplatin)). For the same molecule, the G2 population in the data set on DU145 cells (DU145, after 72 h, control 17%) worked out at 2%; in the data set on HeLa cells [3] (after 72 h, control 16%) it was 11%. Moreover, the “changes in G1 / S phases” value in the data set on HeLa cells [3] was “only slight changes”.
